According to article PMC10502144, “Anti-methicillin-resistant Staphylococcus aureus activity and safety evaluation of 14-O-[(5-ethoxycarbonyl-4,6-dimethylpyrimidine-2-yl) thioacetyl] mutilin (EDT)” (Scientific Reports, 2023):
Where two headings read alike, the source gives them in different places. Marks after values point to notes of the source that are not given here.

Assays:
[1] = test system: Salmonella Typhimurium TA1535
Method: (§1) Before the test, Salmonella Typhimurium (S. Typhimurium) TA97a, TA98, TA100, TA102, TA1535 and Escherichia coli WP2uvrA pKM101 (pKM101) were first checked for their genetic integrity, including biotin dependence, rfa marker (crystal violet), biotin, histidine dependence and presence of the plasmid pKM101 (ampicillin resistance) or pAQ1 (tetracycline resistance). […] The maximum concentration of EDT was also screened using a preliminary experiment.
(§2) DMSO (0.1 mL) was directly incorporated into 1.9 mL melted top agar as the vehicle control. […] Each strain (0.1 mL, 6–7 log10 CFU/mL) was added into 2 mL of top agar in which comprised 0.5 mL S9 (10%), serial concentrations of EDT (2000, 400, 80, 16 and 3.2 μg/plate), DMSO or control chemicals for testing with the S9. For testing without S9, 0.5 mL phosphate buffer saline (PBS, pH 7.4) replaced the S9 mix. Then, the obtained top agar was melted, poured onto the surface of […] and swirled to distribute the top agar to all surfaces of medium, followed by incubation at 37 °C for 48 h. The resultant colonies were counted manually as the number of revertant colonies per plate. The experiments were performed in triplicate and the results were expressed as the average ± SD.

[2] = test system: Salmonella Typhimurium TA97a; assay: Ames test, TA97a; conditions: positive control 50 μg/plate, −S9
Method: as §1, §2

[3] = test system: Salmonella Typhimurium TA98; assay: Ames test, TA98; conditions: TA98, positive control 50 μg/plate, −S9
Method: as §1, §2

[4] = test system: Salmonella Typhimurium TA102; assay: Ames test, TA102; conditions: TA102, positive control 50 μg/plate, −S9
Method: as §1, §2

[5] = test system: Salmonella Typhimurium TA100; assay: Ames test, TA100; format: cell-based; conditions: TA100, positive control 1μL/plate, −S9
Method: as §1, §2

[6] = test system: Escherichia coli WP2uvrA pKM101; assay: Ames test, pKM101
Method: as §1, §2

Q: Which “number of revertant colonies per plate” value ([1]; TA1535, positive control 10 μg/plate, +S9) does the source give for `Nc1ccc2cc3ccccc3cc2c1` [2-aminoanthracene, reference compound] here?
A: 740.00 ± 44.00^d

Q: `CN(C)c1ccc(N=NS(=O)(=O)[O-])cc1.[Na+]` [diaxone, reference compound] was tested. Which “number of revertant colonies per plate” value [2] did it give?
A: 2472.00 ± 94.00^b

Q: What about the “number of revertant colonies per plate” value [3] of the same molecule?
A: 972.00 ± 37.00^b

Q: What about the “number of revertant colonies per plate” value [4] of the same molecule?
A: 522.00 ± 45.00^b

Q: For `[N-]=[N+]=[N-].[Na+]` [sodium azide, reference compound], which “number of revertant colonies per plate” value ([1]; TA1535, positive control 1.5 μg/plate, −S9) is on record?
A: 534.33 ± 38.67^e

Q: methyl sulfonate [reference compound] was tested. Which “number of revertant colonies per plate” value [5] did it give?
A: 1017.33 ± 39.67^c

Q: And the “number of revertant colonies per plate” value [6]?
A: 644.00 ± 38.00^c
